Tested on: human A549 xenograft
Experiment: Anti-tumor effect in human A549 xenograft model
Type: in vivo
Conditions: for mortality: study period of 30 days
Procedure: These xenografts representative of NSCLC and CML respectively are considered to be highly aggressive and resistant to chemotherapy treatment. Therefore, any new chemotherapy agent against these cancers is very much sought. For the experiment, a total of 12 mice bearing A549 or K562 tumors of volume in the range of ˜50 mm^3 were divided into two groups (I & II), each group comprising of six mice. […] The group II was administered DSePA daily dissolved in sterile saline through oral route at a dosage of 1 mg/Kg body weight. The tumor volume and body weight of mice from each group were monitored daily for a total period of 30 days from the day of start. The animals were also checked for mortality if any throughout the study period. The experiment in A549 tumor was repeated three times (n=18 for each group) and the experiment in K562 tumor was repeated two times (n=12 for each group). […] This is the first study to show the anticancer activity of DSePA per se using xenograft model of human lung cancer (A549) and human leukemia (K562) cells in mice. Discovery of the application of the anticancer activity of DSePA is a novel invention in context of its probable usage in treatment for lung and leukemia cancer. More specifically the invention proposes a treatment regime and route of administering DSePA to inhibit the growth of human NSCLC (A549) and CML (K562).
For the optimization of the oral dosage of DSePA, a total of 24 mice bearing A549 or K562 xenograft of volume in the range of ˜50 mm^3 were divided into four groups (I-IV), each group comprising of six mice. […] The groups II, III and IV were administered DSePA dissolved in sterile saline through oral route at the dosage of 1, 2.5 and 5 mg/kg body weight respectively. The administration of DSePA was performed daily for 4 weeks. The tumor volume and body weight of mice from each group were monitored daily for a total period of 30 days from the day of start. The animals were also checked for mortality if any throughout the study period.
Animal maintenance—All animal studies were approved by the Institutional Animal Ethics Committee. Animals were housed under standard conditions (20±2° C., 65-70% humidity, 12 h/12 h day/night cycle, balanced laboratory diet and tap water ad libitum.
Xenograft tumor model-A549 and K562 tumor models were developed by Anticancer Drug Screening Facility of Advanced Centre for Treatment, Research and Education in Cancer (ACTREC), India. Briefly, Male/female NOD-SCID aged 6-7 weeks were housed in the laboratory animal facility of ACTREC. Donor mice carrying K562 or A549 xenografts were developed by injecting 2×10^6 cells in 100 μl of DMEM/RPMI, subcutaneously in their right flank. When tumors attained the size of approximately 2000 mm^3, the animals were sacrificed. Tumors were obtained and further cut into 2-3 mm fragments and implanted subcutaneously in the right flank of 6-7 weeks old recipient SCID mice. Tumors were allowed to grow to a size of approximately 50 mm^3 following which animals were divided into groups of six animals each for evaluation. A fresh DSePA solution was prepared by dissolution in sterile saline before each administration by intraperitoneal/oral route. The tumor efficacy of DSePA was determined by monitoring parameters like tumor volume and T/C. Tumors were assumed spherical and volume was calculated using following equations (1 & 2): […]
Where d1 (mm) and d2 (mm) are diameters measured in two perpendicular planes. T/C is defined as the ratio of the mean tumor volume of DSePA treated groups with the mean tumor volume of control group on the day of observation.

[1] = 1 mg/kg body weight daily oral, day 1
[2] = 1 mg/kg body weight daily oral, day 5
[3] = 1 mg/kg body weight daily oral, day 9
[4] = 1 mg/kg body weight daily oral, day 12
[5] = 1 mg/kg body weight daily oral, day 15
[6] = 1 mg/kg body weight daily oral, day 18
[7] = 1 mg/kg body weight daily oral, day 21
[8] = 1 mg/kg body weight daily oral, day 24
[9] = 1 mg/kg body weight daily oral, day 27
[10] = 1 mg/kg body weight daily oral, day 31
[11] = 2.5 mg/kg body weight daily oral, day 1
[12] = 2.5 mg/kg body weight daily oral, day 5
[13] = 2.5 mg/kg body weight daily oral, day 9
[14] = 2.5 mg/kg body weight daily oral, day 12
[15] = 2.5 mg/kg body weight daily oral, day 15
[16] = 2.5 mg/kg body weight daily oral, day 18
[17] = 2.5 mg/kg body weight daily oral, day 21
[18] = 2.5 mg/kg body weight daily oral, day 24
[19] = 2.5 mg/kg body weight daily oral, day 27
[20] = 2.5 mg/kg body weight daily oral, day 31
[21] = 5 mg/kg body weight daily oral, day 1
[22] = 5 mg/kg body weight daily oral, day 5
[23] = 5 mg/kg body weight daily oral, day 9
[24] = 5 mg/kg body weight daily oral, day 12
[25] = 5 mg/kg body weight daily oral, day 15
[26] = 5 mg/kg body weight daily oral, day 18
[27] = 5 mg/kg body weight daily oral, day 21
[28] = 5 mg/kg body weight daily oral, day 24
[29] = 5 mg/kg body weight daily oral, day 27
[30] = 5 mg/kg body weight daily oral, day 31

For `O=C(O)CC[Se][Se]CCC(=O)O` [DSePA, 3,3′-diselenodipropionic acid], the “tumor growth inhibition vs control” value (1 mg/Kg body weight daily oral, three independent experiments) was “significantly (P<0.05) inhibited the growth”, the “overall reduction (relative tumor volume vs tumor control)” value (1 mg/Kg orally daily, end of study period (30 days), n=18, P=0.0009) was ~2 folds and the mortality (1 mg/Kg orally daily, three independent studies) was “did not show any mortality”. The “% S (Survival)” value [1] was 100%, the “RTV (Relative Tumor Volume)” value [1] was 1 and the “T/C (T (test)/C (control))” value [1] was 1. The “% S (Survival)” value [2] was 100%, the “RTV (Relative Tumor Volume)” value [2] was 1.23 and the “T/C (T (test)/C (control))” value [2] was 0.98. The “% S (Survival)” value [3] was 100%, the “RTV (Relative Tumor Volume)” value [3] was 1.64 and the “T/C (T (test)/C (control))” value [3] was 0.98. The “% S (Survival)” value [4] was 100%, the “RTV (Relative Tumor Volume)” value [4] was 1.83 and the “T/C (T (test)/C (control))” value [4] was 0.87. The “% S (Survival)” value [5] was 100%, the “RTV (Relative Tumor Volume)” value [5] was 1.80 and the “T/C (T (test)/C (control))” value [5] was 0.76. The “% S (Survival)” value [6] was 100%, the “RTV (Relative Tumor Volume)” value [6] was 2.36 and the “T/C (T (test)/C (control))” value [6] was 0.71. For the same molecule, the “% S (Survival)” value [7] was 100%, the “RTV (Relative Tumor Volume)” value [7] was 2.47 and the “T/C (T (test)/C (control))” value [7] was 0.68. For the same molecule, the “% S (Survival)” value [8] was 100%, the “RTV (Relative Tumor Volume)” value [8] was 2.66 and the “T/C (T (test)/C (control))” value [8] was 0.52. The “% S (Survival)” value [9] was 100%, the “RTV (Relative Tumor Volume)” value [9] was 2.94 and the “T/C (T (test)/C (control))” value [9] was 0.47. The “% S (Survival)” value [10] was 100%, the “RTV (Relative Tumor Volume)” value [10] was 3.70 and the “T/C (T (test)/C (control))” value [10] was 0.45. The “% S (Survival)” value [11] was 100%, the “RTV (Relative Tumor Volume)” value [11] was 1 and the “T/C (T (test)/C (control))” value [11] was 1. For the same molecule, the “% S (Survival)” value [12] was 100%, the “RTV (Relative Tumor Volume)” value [12] was 0.99 and the “T/C (T (test)/C (control))” value [12] was 0.79. The “% S (Survival)” value [13] was 100%, the “RTV (Relative Tumor Volume)” value [13] was 1.10 and the “T/C (T (test)/C (control))” value [13] was 0.66. The “% S (Survival)” value [14] was 100%, the “RTV (Relative Tumor Volume)” value [14] was 1.25 and the “T/C (T (test)/C (control))” value [14] was 0.59. The “% S (Survival)” value [15] was 100%, the “RTV (Relative Tumor Volume)” value [15] was 1.03 and the “T/C (T (test)/C (control))” value [15] was 0.43. For the same molecule, the “% S (Survival)” value [16] was 100%, the “RTV (Relative Tumor Volume)” value [16] was 1.31 and the “T/C (T (test)/C (control))” value [16] was 0.39. The “% S (Survival)” value [17] was 100%, the “RTV (Relative Tumor Volume)” value [17] was 1.40 and the “T/C (T (test)/C (control))” value [17] was 0.38. The “% S (Survival)” value [18] was 100%, the “RTV (Relative Tumor Volume)” value [18] was 1.81 and the “T/C (T (test)/C (control))” value [18] was 0.35. For the same molecule, the “% S (Survival)” value [19] was 100%, the “RTV (Relative Tumor Volume)” value [19] was 1.96 and the “T/C (T (test)/C (control))” value [19] was 0.31. The “% S (Survival)” value [20] was 100%, the “RTV (Relative Tumor Volume)” value [20] was 2.84 and the “T/C (T (test)/C (control))” value [20] was 0.35. For the same molecule, the “% S (Survival)” value [21] was 100%, the “RTV (Relative Tumor Volume)” value [21] was 1 and the “T/C (T (test)/C (control))” value [21] was 1. The “% S (Survival)” value [22] was 100%, the “RTV (Relative Tumor Volume)” value [22] was 0.94 and the “T/C (T (test)/C (control))” value [22] was 0.75. The “% S (Survival)” value [23] was 100%, the “RTV (Relative Tumor Volume)” value [23] was 1.29 and the “T/C (T (test)/C (control))” value [23] was 0.76. The “% S (Survival)” value [24] was 100%, the “RTV (Relative Tumor Volume)” value [24] was 1.30 and the “T/C (T (test)/C (control))” value [24] was 0.62. For the same molecule, the “% S (Survival)” value [25] was 100%, the “RTV (Relative Tumor Volume)” value [25] was 1.19 and the “T/C (T (test)/C (control))” value [25] was 0.50. The “% S (Survival)” value [26] was 100%, the “RTV (Relative Tumor Volume)” value [26] was 2.22 and the “T/C (T (test)/C (control))” value [26] was 0.67. For the same molecule, the “% S (Survival)” value [27] was 100%, the “RTV (Relative Tumor Volume)” value [27] was 2.34 and the “T/C (T (test)/C (control))” value [27] was 0.65. For the same molecule, the “% S (Survival)” value [28] was 100%, the “RTV (Relative Tumor Volume)” value [28] was 2.94 and the “T/C (T (test)/C (control))” value [28] was 0.57. The “% S (Survival)” value [29] was 100%, the “RTV (Relative Tumor Volume)” value [29] was 2.92 and the “T/C (T (test)/C (control))” value [29] was 0.47. For the same molecule, the “% S (Survival)” value [30] was 100%, the “RTV (Relative Tumor Volume)” value [30] was 5.30 and the “T/C (T (test)/C (control))” value [30] was 0.65. The “tumor growth inhibition vs control” value (dosage optimization, 1 mg/kg body weight daily oral for 4 weeks) was “significantly (P<0.05) inhibited the growth of A549 tumor from day 21 onwards”, the “tumor growth inhibition vs control” value (dosage optimization, 2.5 mg/kg body weight daily oral for 4 weeks) was “significantly (P<0.05) inhibited the growth of A549 tumor from day 21 onwards” and the “tumor growth inhibition vs control” value (dosage optimization, 5 mg/kg body weight daily oral, experimental end point (31st day)) was “did not show any significant suppression of A549 tumor”. The mortality (dosage optimization, 1, 2.5 and 5 mg/kg daily oral) was “did not show any mortality”, the T/C achieved (lung model, 1 mg/kg body weight daily oral) was ≤ 0.42 and the “minimum dosage to achieve optimum efficacy” value (oral daily) was 1 mg/kg body weight.
